Laboratory results as given in publication PMC11762167, “G Protein-Coupled Receptor 17 Inhibits Glucagon-like Peptide-1 Secretion via a Gi/o-Dependent Mechanism in Enteroendocrine Cells” (Biomolecules, 2024).

Experiments:
hGPR17L = hGPR17L (Homo sapiens, UniProt Q13304); assay: Endpoint cAMP (HTRF) in GLUTag cells expressing hGPR17L; type: cell-based; design: host or cells: GLUTag cells (murine enteroendocrine line), adenoviral transduction; Mean Diff. of cAMP, MDL29,951 vs FSK alone (Tukey): unit not given here; conditions: for Mean Diff. of cAMP, MDL29,951 vs FSK alone (Tukey): hGPR17L
Chain of hGPR17L (Q13304 whole entry): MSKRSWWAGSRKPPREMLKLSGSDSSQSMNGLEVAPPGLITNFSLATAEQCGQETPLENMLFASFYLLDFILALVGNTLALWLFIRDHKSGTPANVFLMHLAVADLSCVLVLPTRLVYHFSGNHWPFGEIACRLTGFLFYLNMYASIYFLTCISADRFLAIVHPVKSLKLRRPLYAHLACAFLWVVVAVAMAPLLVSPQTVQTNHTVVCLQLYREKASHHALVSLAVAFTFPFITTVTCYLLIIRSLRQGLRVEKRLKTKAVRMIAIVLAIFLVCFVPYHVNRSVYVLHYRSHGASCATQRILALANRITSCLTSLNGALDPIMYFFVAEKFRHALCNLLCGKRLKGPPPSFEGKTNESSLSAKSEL
Description: (§1) GLUTag cells were maintained in Dulbecco’s Modified Eagle Medium (DMEM) supplemented with 10% fetal bovine serum and 1% penicillin–streptomycin in a humidified incubator at 37 °C and 5% CO2. For adenovirus transduction, GLUTag cells were seeded into poly-D-lysine coated 96-well plates or 4-chamber slides. The next day, cells were transduced with adenoviruses (100–1250 viral particles per cell at time of seeding) as indicated. After 24–30 h, adenovirus-containing media was changed to serum-free growth media for overnight serum starvation. The following day, GLUTag cells were used for cAMP or calcium signaling assays, GLP-1 secretion assays, or immunostaining and imaging.
(§2) Endpoint cAMP measurements were conducted as follows. GLUTag cells were seeded into poly-D-lysine-coated 96-well plates and transduced with adenovirus as specified above and then tested for cAMP signaling. Medium was removed and cells were washed with cAMP stimulation buffer (Hanks’ balanced salt solution (HBSS), 20 mM HEPES, pH 7.4) and then incubated in cAMP stimulation buffer for 30 min at 37 °C and 5% CO2. Cells were then treated for 30 min with agonist and forskolin in the presence of 500 µM IBMX at 37 °C and 5% CO2. Stimulation buffer was then decanted, and cAMP lysis buffer (50 mM HEPES, 10 mM CaCl2, 0.35% Triton X-100, and 500 µM IBMX) was added and shaken at 700 rpm for 1 h. Lysate was transferred to a 384-well plate, and the cAMP levels were quantified using the Cisbio HTRF cAMP (Gi kit; Revvity, Waltham, MA, USA) according to the manufacturer’s protocol.

GLUTag cells [1] = assay: Calcium flux (Calcium 6) in control-transduced GLUTag cells; type: cell-based, murine; design: Mean Diff.: unit not given here; conditions: for Mean Diff.: Figure 1B, Ctl
Description: as §1
GLUTag cells were seeded into black, clear bottom, poly-D-lysine-coated 96-well plates. Cells were transduced and serum starved as specified above. Growth medium was then replaced with 100 μL/well assay buffer (HBSS, 20 mM HEPES, pH 7.4) and 100 μL/well Calcium 6 loading dye (R8190; Molecular Devices, San Jose, CA, USA). During dye loading, cells were incubated at 37 °C and 5% CO2 for 2 h. MDL29,951 or KCl was added to the wells and fluorescence (485 nm excitation, 525 nm emission, and 515 nm automatic emission cutoff) was measured using a Molecular Devices FlexStation3 (Molecular Devices) at 37 °C. For experiments with PTX, cells were pretreated with 100 ng/mL PTX overnight and 100 ng/mL PTX was included with Calcium 6 loading dye for calcium flux assays. For experiments with YM-254890, cells were pretreated for 30 min at 37 °C.

GLUTag cells [2] = assay: Endpoint cAMP (HTRF) in control-transduced GLUTag cells; type: cell-based, murine; design: Mean Diff. of cAMP, MDL29,951 vs FSK alone (Tukey): unit not given here; conditions: for Mean Diff. of cAMP, MDL29,951 vs FSK alone (Tukey): Ctl
Description: as §1, §2

O=C(O)CCc1c(C(=O)O)[nH]c2cc(Cl)cc(Cl)c12 [MDL29,951]
Mean Diff. of cAMP, MDL29,951 vs FSK alone (Tukey) (hGPR17L; log [MDL29,951] (M) -5.8): -1.598 | Mean Diff. of cAMP, MDL29,951 vs FSK alone (Tukey) (hGPR17L; log [MDL29,951] (M) -6.4): -1.654 | Mean Diff. of cAMP, MDL29,951 vs FSK alone (Tukey) (hGPR17L; log [MDL29,951] (M) -7.0): -1.376 | Mean Diff. of cAMP, MDL29,951 vs FSK alone (Tukey) (hGPR17L; log [MDL29,951] (M) -7.6): -0.7263 | Mean Diff. of cAMP, MDL29,951 vs FSK alone (Tukey) (hGPR17L; log [MDL29,951] (M) -8.2): -0.237 | Mean Diff. of cAMP, MDL29,951 vs FSK alone (Tukey) (hGPR17L; log [MDL29,951] (M) -8.8): -0.04325 | Mean Diff. of cAMP, MDL29,951 vs FSK alone (Tukey) (hGPR17L; log [MDL29,951] (M) -9.4): -0.0985 | Mean Diff. (Tukey's multiple comparisons test), cAMP, Row 10 vs. Row 11 (hGPR17L; hGPR17L-WT (1250), log [MDL29,951] (M) -4.0 vs. Vehicle, Forskolin stimulation, Figure 4B): -9.193 | Mean Diff. (Tukey's multiple comparisons test), cAMP, Row 9 vs. Row 11 (hGPR17L; hGPR17L-WT (1250), log [MDL29,951] (M) -4.6 vs. Vehicle, Forskolin stimulation, Figure 4B): -17.14 | Mean Diff. (Tukey's multiple comparisons test), cAMP, Row 8 vs. Row 11 (hGPR17L; hGPR17L-WT (1250), log [MDL29,951] (M) -5.2 vs. Vehicle, Forskolin stimulation, Figure 4B): -27.93 | Mean Diff. (Tukey's multiple comparisons test), cAMP, Row 7 vs. Row 11 (hGPR17L; hGPR17L-WT (1250), log [MDL29,951] (M) -5.8 vs. Vehicle, Forskolin stimulation, Figure 4B): -39.19 | Mean Diff. (Tukey's multiple comparisons test), cAMP, Row 6 vs. Row 11 (hGPR17L; hGPR17L-WT (1250), log [MDL29,951] (M) -6.4 vs. Vehicle, Forskolin stimulation, Figure 4B): -41.54 | Mean Diff. (Tukey's multiple comparisons test), cAMP, Row 5 vs. Row 11 (hGPR17L; hGPR17L-WT (1250), log [MDL29,951] (M) -7.0 vs. Vehicle, Forskolin stimulation, Figure 4B): -35.32 | Mean Diff. (Tukey's multiple comparisons test), cAMP, Row 4 vs. Row 11 (hGPR17L; hGPR17L-WT (1250), log [MDL29,951] (M) -7.6 vs. Vehicle, Forskolin stimulation, Figure 4B): -21.64 | Mean Diff. (Tukey's multiple comparisons test), cAMP, Row 3 vs. Row 11 (hGPR17L; hGPR17L-WT (1250), log [MDL29,951] (M) -8.2 vs. Vehicle, Forskolin stimulation, Figure 4B): -11.12 | Mean Diff. (Tukey's multiple comparisons test), cAMP, Row 2 vs. Row 11 (hGPR17L; hGPR17L-WT (1250), log [MDL29,951] (M) -8.8 vs. Vehicle, Forskolin stimulation, Figure 4B): -5.06 | Mean Diff. (Tukey's multiple comparisons test), cAMP, Row 1 vs. Row 11 (hGPR17L; hGPR17L-WT (1250), log [MDL29,951] (M) -9.4 vs. Vehicle, Forskolin stimulation, Figure 4B): -7.193 | peak ΔF/F, calcium flux (GLUTag cells [1]; 30 µM MDL29,951, control-transduced cells): 0.01 ± 0.01 | Mean Diff. (GLUTag cells [1]; log [MDL29,951] (M) -4.5 vs. Vehicle): -0.01567 | Mean Diff. (GLUTag cells [1]; log [MDL29,951] (M) -5.0 vs. Vehicle): -0.01433 | Mean Diff. (GLUTag cells [1]; log [MDL29,951] (M) -5.5 vs. Vehicle): -0.0003333 | Mean Diff. (GLUTag cells [1]; log [MDL29,951] (M) -6.0 vs. Vehicle): 0.0006667 | Mean Diff. (GLUTag cells [1]; log [MDL29,951] (M) -6.4 vs. Vehicle): 0.01533 | Mean Diff. (GLUTag cells [1]; log [MDL29,951] (M) -6.9 vs. Vehicle): 0.002 | Mean Diff. (GLUTag cells [1]; log [MDL29,951] (M) -7.4 vs. Vehicle): 0.002667 | Mean Diff. (GLUTag cells [1]; log [MDL29,951] (M) -7.9 vs. Vehicle): 0.004333 | Mean Diff. (GLUTag cells [1]; log [MDL29,951] (M) -8.3 vs. Vehicle): -0.001667 | Mean Diff. (GLUTag cells [1]; log [MDL29,951] (M) -8.8 vs. Vehicle): -0.0003333 | effect on PGE2-stimulated cAMP levels (GLUTag cells [2]; 300 nM PGE2, control transduction condition): no effect | effect on cAMP levels upon PMA treatment (GLUTag cells [2]; 300 nM PMA, control-transduced cells): no effect | Mean Diff. of cAMP, MDL29,951 vs FSK alone (Tukey) (GLUTag cells [2]; log [MDL29,951] (M) -4.0): 0.00975 | Mean Diff. of cAMP, MDL29,951 vs FSK alone (Tukey) (GLUTag cells [2]; log [MDL29,951] (M) -4.6): 0.066 | Mean Diff. of cAMP, MDL29,951 vs FSK alone (Tukey) (GLUTag cells [2]; log [MDL29,951] (M) -5.2): 0.1185 | Mean Diff. of cAMP, MDL29,951 vs FSK alone (Tukey) (GLUTag cells [2]; log [MDL29,951] (M) -5.8): 0.114 | Mean Diff. of cAMP, MDL29,951 vs FSK alone (Tukey) (GLUTag cells [2]; log [MDL29,951] (M) -6.4): 0.183 | Mean Diff. of cAMP, MDL29,951 vs FSK alone (Tukey) (GLUTag cells [2]; log [MDL29,951] (M) -7.0): 0.173 | Mean Diff. of cAMP, MDL29,951 vs FSK alone (Tukey) (GLUTag cells [2]; log [MDL29,951] (M) -7.6): 0.2335 | Mean Diff. of cAMP, MDL29,951 vs FSK alone (Tukey) (GLUTag cells [2]; log [MDL29,951] (M) -8.2): 0.2168 | Mean Diff. of cAMP, MDL29,951 vs FSK alone (Tukey) (GLUTag cells [2]; log [MDL29,951] (M) -8.8): 0.0115 | Mean Diff. of cAMP, MDL29,951 vs FSK alone (Tukey) (GLUTag cells [2]; log [MDL29,951] (M) -9.4): -0.09325 | effect on forskolin-stimulated cAMP (GLUTag cells [2]; control-transduced cells, 10 µM forskolin): no effect
